# Counter-ions that a name gives are not always drawn.
# Molecular target: recombinant human AMCase (Homo sapiens, UniProt Q9BZP6)
# Assay: Human AMCase Activity Assay
# Type: biochemical
# Settings: recombinant hAMCase, 4-methylumbelliferyl chitobioside substrate, citrate buffer pH 5.2, 37° C., 60 minutes; read-out: Activity (IC50 value key)
# Procedure, shortened: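 Recombinant human enzyme with fluorogenic 4-methylumbelliferyl β-D-N,N′-diacetylchitobioside substrate in citrate buffer, pH 5.2, 60 min at 37 °C in the dark with shaking. Read-out is 4MU fluorescence at 460 nm.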
# Sequence of recombinant human AMCase (Q9BZP6 22-476): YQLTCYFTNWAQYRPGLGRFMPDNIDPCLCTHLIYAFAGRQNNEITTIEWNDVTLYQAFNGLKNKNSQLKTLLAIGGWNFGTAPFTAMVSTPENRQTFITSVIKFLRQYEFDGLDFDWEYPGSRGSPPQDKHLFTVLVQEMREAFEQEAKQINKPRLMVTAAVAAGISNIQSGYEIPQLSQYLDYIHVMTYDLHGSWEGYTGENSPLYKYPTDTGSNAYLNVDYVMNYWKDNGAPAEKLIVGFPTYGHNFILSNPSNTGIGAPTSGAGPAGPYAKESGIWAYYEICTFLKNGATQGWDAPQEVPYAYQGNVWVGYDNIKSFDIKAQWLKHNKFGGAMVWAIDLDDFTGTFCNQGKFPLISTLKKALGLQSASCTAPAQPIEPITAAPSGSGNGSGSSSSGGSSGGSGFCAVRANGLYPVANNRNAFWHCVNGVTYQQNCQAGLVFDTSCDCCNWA
row,SMILES,IC50 [µM]
1,"Nc1n[nH]c(N2CCC(CNC(=O)c3cc(Br)cc(Br)c3)CC2)n1 [Example 209, N-((1-(3-amino-1H-1,2,4-triazol-5-yl)piperidin-4-yl)methyl)-3,5-dibromobenzamide]",> 100
2,"Cc1cccc(C(=O)NCC2CCN(c3nc(N)n[nH]3)CC2)c1C [Example 210, N-((1-(3-amino-1H-1,2,4-triazol-5-yl)piperidin-4-yl)methyl)-2,3-dimethylbenzamide]",> 100
3,"COc1ccc(C(=O)NCC2CCN(c3nc(N)n[nH]3)CC2)cc1OC [Example 211, N-((1-(3-amino-1H-1,2,4-triazol-5-yl)piperidin-4-yl)methyl)-3,4-dimethoxybenzamide]",> 100
4,"Nc1n[nH]c(N2CCC(CNC(=O)c3ccc(F)cc3F)CC2)n1 [Example 213, N-((1-(3-amino-1H-1,2,4-triazol-5-yl)piperidin-4-yl)methyl)-2,4-difluorobenzamide]",> 100
5,"Nc1n[nH]c(N2CCN(C(=O)CC(N)c3ccccc3F)CC2)n1 (stereo not shown) [Example 214, 3-amino-1-(4-(3-amino-1H-1,2,4-triazol-5-yl)piperazin-1-yl)-3-(2-fluorophenyl)propan-1-one dihydrochloride]",> 100
6,"CCC(CN1CCN(c2nc(N)n[nH]2)CC1)Oc1ccc(Cl)cc1 (stereo not shown) [Example 216, 5-(4-(2-(4-chlorophenoxy)butyl)piperazin-1-yl)-1H-1,2,4-triazol-3-aminedihydrochloride]",1 to 10
7,"Nc1n[nH]c(N2CCC(NC(=O)Nc3cc(Cl)c(Cl)cc3Cl)CC2)n1 [Example 217, 1-(1-(3-amino-1H-1,2,4-triazol-5-yl)piperidin-4-yl)-3-(2,4,5-trichlorophenyl)urea]",> 100
8,Nc1n[nH]c(N2CCC(CNC(=O)Nc3cccc(Cl)c3)CC2)n1 [Example 218],> 100
9,"Nc1n[nH]c(N2CCC(CNC(=O)c3ccc(F)c(F)c3)CC2)n1 [Example 220, N-((1-(3-amino-1H-1,2,4-triazol-5-yl)piperidin-4-yl)methyl)-3,4-difluorobenzamide]",> 100
10,"CC(=O)NC(CC(=O)N1CCN(c2nc(N)n[nH]2)CC1)c1cccc(F)c1 (stereo not shown) [Example 222, N-(3-(4-(3-amino-1H-1,2,4-triazol-5-yl)piperazin-1-yl)-1-(3-fluorophenyl)-3-oxopropyl)acetamide]",> 100
11,"Nc1n[nH]c(N2CCN(CCCc3ccc(C(F)(F)F)cc3)C(CCCO)C2)n1 (stereo not shown) [Example 223, 3-(4-(3-amino-1H-1,2,4-triazol-5-yl)-1-(3-(4-(trifluoromethyl)phenyl)propyl)piperazin-2-yl)propan-1-ol]",1 to 10
12,Nc1n[nH]c(N2CCN(CCCc3ccccc3)C(CCCO)C2)n1 (stereo not shown) [Example 226],10 to 100
13,"CCC(Cc1ccc(Cl)cc1)N(CC)C1CCN(c2nc(N)n[nH]2)CC1 (stereo not shown) [Example 232, 1-(3-amino-1H-1,2,4-triazol-5-yl)-N-(1-(4-chlorophenyl)butan-2-yl)-N-ethylpiperidin-4-amine dihydrochloride]",0.1 to 1
14,"Nc1n[nH]c(N2CCN(C(=O)CC(N)c3cccc(F)c3)CC2)n1 (stereo not shown) [Example 233, 3-amino-1-(4-(3-amino-1H-1,2,4-triazol-5-yl)piperazin-1-yl)-3-(3-fluorophenyl)propan-1-one]",> 100
15,"CCN(C1CCN(c2nc(N)n[nH]2)CC1)S(=O)(=O)Cc1cccc(Cl)c1 [Example 238, N-(1-(3-amino-1H-1,2,4-triazol-5-yl)piperidin-4-yl)-1-(3-chlorophenyl)-N-ethylmethanesulfonamide]",0.1 to 1
16,"CN(C)C(Cc1ccc(Cl)cc1Cl)C(=O)N1CCN(c2nc(N)n[nH]2)CC1 (stereo not shown) [Example 240, 1-(4-(3-amino-1H-1,2,4-triazol-5-yl)piperazin-1-yl)-3-(2,4-dichlorophenyl)-2-(dimethylamino)propan-1-one]",> 100
17,"C[C@H](CN1CCN(c2nc(N)n[nH]2)CC1)Oc1ccc(Cl)cc1 [Example 241, (R)-5-(4-(2-(4-chlorophenoxy)propyl)piperazin-1-yl)-1H-1,2,4-triazol-3-amine dihydrochloride]",> 100
18,"CN(C)C(CC(=O)N1CCN(c2nc(N)n[nH]2)CC1)c1ccccc1F (stereo not shown) [Example 242, 1-(4-(3-amino-1H-1,2,4-triazol-5-yl)piperazin-1-yl)-3-(dimethylamino)-3-(2-fluorophenyl)propan-1-one dihydrochloride]",> 100
19,"Nc1n[nH]c(N2CCC(CNC(=O)c3cc(Cl)cc(Cl)c3)CC2)n1 [Example 243, N-((1-(3-amino-1H-1,2,4-triazol-5-yl)piperidin-4-yl)methyl)-3,5-dichlorobenzamide]",> 100
20,"CN(C1CCN(c2nc(N)n[nH]2)CC1)S(=O)(=O)Cc1cccc(Cl)c1 [Example 248, N-(1-(3-amino-1H-1,2,4-triazol-5-yl)piperidin-4-yl)-2-(3-chlorophenyl)-N-methylmethanesulfonamide hydrochloride]",> 100
21,"CN(CCc1ccc(Cl)cc1)C1CCN(c2nc(N)n[nH]2)CC1F (stereo not shown) [Example 249, 1-(3-amino-1H-1,2,4-triazol-5-yl)-N-(4-chlorophenethyl)-3-fluoro-N-methylpiperidin-4-amine]",1 to 10
22,"CN(C1CCN(c2nc(N)n[nH]2)CC1)C1CCc2ccccc2C1 (stereo not shown) [Example 250, 1-(3-amino-1H-1,2,4-triazol-5-yl)-N-methyl-N-(1,2,3,4-tetrahydronaphthalen-2-yl)piperidin-4-amine dihydrochloride]",> 100
23,"Nc1n[nH]c(N2CCC(NCCc3ccc(Cl)cc3)C(CCCO)C2)n1 (stereo not shown) [Example 251, 3-(1-(3-amino-1H-1,2,4-triazol-5-yl)-4-((4-chlorophenethyl)amino)piperidin-3-yl)propan-1-ol dihydrochloride]",< 0.1
24,"Nc1n[nH]c(N2CCC(CNCc3ccc(Cl)c(Cl)c3)CC2)n1 [Example 252, 5-(4-(((3,4-dichlorobenzyl)amino)methyl)piperidin-1-yl)-1H-1,2,4-triazol-3-amine dihydrochloride]",> 100

# The remaining lines, values ahead:
row,IC50 [µM],SMILES
1,> 100,"Cc1ccccc1C(=O)NCC1CCN(c2nc(N)n[nH]2)CC1 [Example 212, N-((1-(3-amino-1H-1,2,4-triazol-5-yl)piperidin-4-yl)methyl)-2-methylbenzamide]"
2,> 100,"Nc1n[nH]c(N2CCN(C(=O)CC(N)c3ccc(F)cc3)CC2)n1 (stereo not shown) [Example 215, 3-amino-1-(4-(3-amino-1H-1,2,4-triazol-5-yl)piperazin-1-yl)-3-(4-fluorophenyl)propan-1-one dihydrochloride]"
3,10 to 100,"Nc1n[nH]c(N2CCN(C(=O)[C@@H](O)Cc3ccc(Cl)cc3)CC2)n1 [Example 221, (S)-1-(4-(3-amino-1H-1,2,4-triazol-5-yl)piperazin-1-yl)-3-(4-chlorophenyl)-2-hydroxypropan-1-one]"
4,0.1 to 1,"CC(=O)OCCCC1CN(c2nc(N)n[nH]2)CCN1CCCc1ccc(Br)cc1 (stereo not shown) [Example 224, 3-(4-(3-amino-1H-1,2,4-triazol-5-yl)-1-(3-(4-bromophenyl)propyl)piperazin-2-yl)propylacetate]"
5,1 to 10,"Nc1n[nH]c(N2CCN(CCCc3ccc(Br)cc3)C(CCCO)C2)n1 (stereo not shown) [Example 225, 3-(4-(3-amino-1H-1,2,4-triazol-5-yl)-1-(3-(4-bromophenyl)propyl)piperazin-2-yl)propan-1-ol]"
6,0.1 to 1,"CN(CCc1ccc(Cl)cc1)C1(CCO)CCN(c2nc(N)n[nH]2)CC1 [Example 228, 2-(1-(3-amino-1H-1,2,4-triazol-5-yl)-4-((4-chlorophenethyl)(methyl)amino)piperidin-4-yl)ethanol]"
7,1 to 10,"CC(C)(O)CCC1CN(c2nc(N)n[nH]2)CCN1CCCc1ccc(Br)cc1 (stereo not shown) [Example 229, 4-(4-(3-amino-1H-1,2,4-triazol-5-yl)-1-(3-(4-bromophenyl)propyl)piperazin-2-yl)-2-methylbutan-2-ol]"
8,0.1 to 1,"CC1CN(c2nc(N)n[nH]2)CCC1N(C)CCc1ccc(Br)cc1 (stereo not shown) [Example 230, 1-(3-amino-1H-1,2,4-triazol-5-yl)-N-(4-bromophenethyl)-N,3-dimethylpiperidin-4-amine dihydrochloride]"
9,> 100,"CC1(C(=O)NCc2ccc(Cl)cc2)CCN(c2nc(N)n[nH]2)CC1 [Example 235, 1-(3-amino-1H-1,2,4-triazol-5-yl)-N-(4-chlorobenzyl)-4-methylpiperidine-4-carboxamide]"
10,> 100,"CC1(C(=O)NCc2ccc(Br)cc2)CCN(c2nc(N)n[nH]2)CC1 [Example 237, 1-(3-amino-1H-1,2,4-triazol-5-yl)-N-(4-bromobenzyl)-4-methylpiperidine-4-carboxamide]"
11,1 to 10,"CC1CN(c2nc(N)n[nH]2)CCC1NS(=O)(=O)Cc1ccc(Br)cc1 (stereo not shown) [Example 244, N-(1-(3-amino-1H-1,2,4-triazol-5-yl)-3-methylpiperidin-4-yl)-1-(4-bromophenyl)methanesulfonamide]"
12,1 to 10,"CN(CCc1ccc(Cl)cc1)C1(CCCO)CCN(c2nc(N)n[nH]2)CC1 [Example 245, 3-(1-(3-amino-1H-1,2,4-triazol-5-yl)-4-((4-chlorophenethyl)(methyl)amino)piperidin-4-yl)propan-1-ol]"
13,< 0.1,"CN(CCc1ccc(Br)cc1)C1CCN(c2nc(N)n[nH]2)CC1CCCO (stereo not shown) [Example 246, 3-(1-(3-amino-1H-1,2,4-triazol-5-yl)-4-((4-bromophenethyl)(methyl)amino)piperidin-3-yl)propan-1-ol]"
14,1 to 10,"CCCC1(NCCc2ccc(Br)cc2)CCN(c2nc(N)n[nH]2)CC1 [Example 247, 1-(3-amino-1H-1,2,4-triazol-5-yl)-N-(4-bromophenethyl)1-4-propyl piperidin-4-amine, dihydrochloride]"
15,< 0.1,"Nc1n[nH]c(N2CCC3C(CCCN3CCc3ccc(Br)cc3)C2)n1 (stereo not shown) [Example 253, 5-(1-(4-bromophenethyl)octahydro-1,6-naphthyridin-6(2H)-yl)-1H-1,2,4-triazol-3-amine dihydrochloride]"
16,> 100,"Nc1n[nH]c(N2CCC(CNCc3ccc(Br)cc3)CC2)n1 [Example 254, 5-(4-(((4-bromobenzyl)amino)methyl)piperidin-1-yl)-1H-1,2,4-triazol-3-amine]"

# From patent publication US10214531B2 (Institute for Drug Discovery, LLC, priority 2013, dated 2019)
